How the values were obtained:
[1] = system: human prostate cancer LD1-0034-361929 subcutaneous xenograft tumor model; assay: In-vivo pharmacodynamic study on human castration resistant prostate cancer PDX subcutaneous tumor model; parameters: species or system male Nu/Nu nude mice; conditions: abiraterone-resistant CRPC PDX in nude mice, oral intragastric Qd, 39 days, compound 29 15 mg/kg, abiraterone 200 mg/kg; for TGI (%): TGI=1−T/C
Protocol: Test sample: compound 29 of the present invention, the structure of which is shown above, and which was prepared as described in the detailed description of WO2018108079A1. Abiraterone was obtained from commercially available sources.
Animals, information on the patient from whom the tumor masses were derived, and other materials: human prostate cancer tumor sample LD1-0034-361929, derived from a patient resistant to abiraterone; clinical diagnosis: castration resistant prostate cancer with bladder metastatic lesions, pathological diagnosis: prostate cancer-poorly differentiated adenocarcinoma; • male Nu/Nu nude mice, aged 6-8 weeks.
The tumor masses were inoculated into the right back of mice, and the animals were weighed before administration. Tumor volumes were measured, and grouping was designed in blocks according to the tumor volumes.
Administration was carried out as in the table below.
The animals were monitored daily for health status and mortality, body weight and tumor volume were measured twice a week, and samples were collected after the last administration. The therapeutic effect on tumor volume was evaluated by TGI %, wherein the relative tumor inhibition rate TGI (%): TGI=1−T/C (%). T/C % is the relative tumor proliferation rate, i.e., the percentage of the relative tumor volume in the treatment and control groups at a given time point. T and C are relative tumor volumes (RTVs) of the treatment and control groups at a given time point, respectively. The calculation formula is as follows: T/C %=TRTV/CRTV×100% (TRTV: mean RTV for treatment group; CRTV: mean RTV for vehicle control group; RTV=Vt/V0, wherein V0 is the tumor volume of the animal at the time of grouping, and Vt is the tumor volume of the animal after treatment).

[2] = system: PC-3; assay: Prostate cancer cell proliferation assay (Cell titer-Glo, 72 h), PC-3; format: cell-based; conditions: Homo sapiens, PC-3 cells, inhibition of proliferation, read-out: Compound IC50/nM
Protocol: (§1) Prostate cancer cell materials: DU145, PC-3, VCaP, and LNCaP clone FGC.
(§2) Test instrument: PE Envision multimode microplate reader.
(§3) Each cell line was seeded in a 384-well plate for adherent culture overnight, and then compounds at different concentrations (10 dose groups, serial 4-fold dilution with DMSO) were added to give a maximum final concentration of 10000 nM, wherein the final DMSO content was 0.33%, and staurosporine at a final concentration of 10 μM was used as a system positive control ([…] inhibition). Negative control wells contained medium with the same amount of DMSO (0% inhibition). The plate was incubated at 37° C., 5% CO2 and 95% humidity for 72 h for later test. 30 μL of Cell titer-Glo reagent was added to each well, and after the plate was incubated at room temperature for 30 min, the final data were read using the microplate reader.
(§4) The data were calculated as follows:
(§5) Inhibition rate (%)=100%−(compound signal−system positive control signal)/(negative control signal−system positive control signal)[…].

[3] = system: DU145; assay: Prostate cancer cell proliferation assay (Cell titer-Glo, 72 h), DU145; format: cell-based; conditions: Homo sapiens, DU-145, DU145 cells, inhibition of proliferation, read-out: Compound IC50/nM
Protocol: as §1, §2, §3, §4, §5

[4] = system: VCaP; assay: Prostate cancer cell proliferation assay (Cell titer-Glo, 72 h), VCaP; format: cell-based; conditions: Homo sapiens, VCaP cells, inhibition of proliferation, read-out: Compound IC50/nM
Protocol: as §1, §2, §3, §4, §5

[5] = system: LNCaP clone FGC; assay: Prostate cancer cell proliferation assay (Cell titer-Glo, 72 h), LNCaP clone FGC; format: cell-based; conditions: Homo sapiens, LNCaP clone FGC cells, inhibition of proliferation, read-out: Compound IC50/nM
Protocol: as §1, §2, §3, §4, §5

[6] = system: metastatic castration resistant prostate cancer; assay: Clinical study in patients with metastatic castration resistant prostate cancer; format: in vivo, human; conditions: among 11 mCRPC patients with response evaluation data (10 at 12 mg, 1 at 10 mg), oral once daily, 28-day cycles
Protocol: Test medicament: compound 29, the structure of which is shown above, and which was prepared as described in the detailed description of WO2018108079A1.
Inclusion criteria: patients with histopathologically or cytologically confirmed metastatic castration resistant prostate cancer for which no standard therapy is available.
Dosing regimen: compound 29 was administered orally at a prescribed dose (such as 8 mg, 10 mg, or 12 mg) once daily, with 28 consecutive days of administration being one cycle.
Response evaluation: among the 11 patients with response evaluation data (10 patients received a single dose of 12 mg, and 1 patient received a single dose of 10 mg), 7 patients achieved partial response (PR), and 2 patients reported stable disease (SD).

Structure (SMILES) | Tumor volume (mm^3) [1] [mm^3] | TGI (%) [1] [%] | IC50 [2] [nM] | IC50 [3] [nM] | IC50 [4] [nM] | IC50 [5] [nM] | patients achieved partial response (PR) [6] [patients]
C[C@]12CC[C@H](O)CC1=CC[C@@H]1[C@@H]2CC[C@]2(C)C(c3cccnc3)=CC[C@@H]12 [Abiraterone, reference compound] | 1549.43 ± 533.15 | −8.97 |  |  |  |  | 
Cc1[nH]nc2c1N=C(c1ccccc1Cl)c1cnc(N3CCOCC3)cc1N2 [Compound 29] | 622.23 ± 247.3 | 58.07 | < 1000 | < 1000 | < 1000 | 1000 to 10000 | 7
